Assay results published in US10610507B2, “Methods for the treatment of sialorrhea” (NeuRX Pharmaceuticals LLC, priority 2012, dated 2020).

Tests used:
[1] = cited from earlier work
in vitro = details: human, liver microsomes
[2] = Human liver microsome incubation study (metabolic stability)
[3] = human liver microsome incubation

| half-life (in vitro) | microsomal CLint (in vitro) | SMILES | absolute bioavailability ([1]; administered orally) | oral bioavailability ([1]; after oral administration, pre-systemic metabolism) | inter individual variation in maximal oxybutynin plasma concentration (Cmax) ([1]; after oral administration) | inter individual variation in oxybutynin AUC ([1]; after oral administration) | increase of oxybutynin plasma levels ([1]; co-administered with ketoconazole vs without ketoconazole) | stability to metabolism by human liver microsomes relative to oxybutynin ([2]; compared with oxybutynin) | Clint [2, 3] | Half Life [2, 3] |
| --- | --- | --- | --- | --- | --- | --- | --- | --- | --- | --- |
| 5.2 min | 267 µL/min/mg | CCN(CC)CC#CCOC(=O)C(O)(c1ccccc1)C1CCCCC1 (racemic) [Oxybutynin] | about 6% | approximately 6.2% | 8 fold | 13 fold | 3-4 fold | – | – | – |
| – | – | CCNCC#CCOC(=O)C(O)(c1ccccc1)C1CCCCC1 (stereo not shown) [N-desethyloxybutynin, 4-(ethylamino) but-2-ynyl2-cyclohexyl-2-hydroxy-2-phenylacetate] | – | – | – | – | – | 10 times | 0.0218 ml/min/mg protein | >60 (63.6) mins |
